Reference: patent publication US20230203445A1, “HYPOIMMUNOGENIC CELLS” (HEALIOS K.K., priority 2020, published 2023)

Tested on: iCaspase9-introduced cells
Assay: Suicide gene function: cell death induction by rapamycin (CellTiter Glo)
Assay type: cell-based, human
Details: 24 hr
Method: Next, an experiment was conducted to confirm whether the introduced suicide gene is functionable. In order to confirm the function of the suicide gene iCaspase9 introduced into universal donor iPS cells as a safety mechanism, the cell death induction by the addition of rapamycin in vitro was confirmed. In order to evaluate the cell death induction efficiency, CellTiter Glo Assay Kit (Promega) was used to luminescence measure the cell viability based on the amount of ATP, which is an index of cell viability. The above-mentioned iCaspase9-introduced cells (clone B), and iCaspase9-free unedited cells (Parental) were cultured for 24 hr under the condition of each rapamycin concentration (0 nM, 0.003 nM, 0.01 nM, 0.03 nM, 0.1 nM, 0.3 nM, 1 nM) and the viable cell rate was measured.

In the case of `CO[C@H]1C[C@@H]2CC[C@@H](C)[C@@](O)(O2)C(=O)C(=O)N2CCCC[C@H]2C(=O)O[C@H]([C@H](C)C[C@@H]2CC[C@@H](O)[C@H](OC)C2)CC(=O)[C@H](C)/C=C(\C)[C@@H](O)[C@@H](OC)C(=O)[C@H](C)C[C@H](C)/C=C/C=C/C=C/1C` [rapamycin], the “rapamycin concentration at which cell death was induced by iCaspase9” value is reported as no less than 0.1 nM.
